From US8802597B2, “Herbicidal pyrimidines” (E I du Pont de Nemours and Company, priority 2003, dated 2014)

Legend:
Assay type in all cases: in vivo
[1] = system: rice flatsedge (Cyperus iria); experiment: Test E flooded paddy water application; details: Flood, 21 days, scale 0 to 100 (0 no effect, 100 complete control)
Source text: (§1) Three plastic pots (ca. 16-cm diameter) per rate were partially filled with sterilized Tama silt loam soil comprising a 35:50:15 ratio of sand, silt and clay and 2.6% organic matter. Separate plantings for each of the three pots were as follows. Seeds from the U.S. of ducksalad (Heteranthera limosa), smallflower umbrella sedge (Cyperus difformis) and purple redstem (Ammannia coccinea), were planted into one 16-cm pot for each rate. Seeds from the U.S. of rice flatsedge (Cyperus iria), bearded (brdd.) sprangletop (Leptochloa fusca ssp. fascicularis), one stand of 9 or 10 water seeded rice seedlings (Oryza sativa cv. ‘Japonica-M202’), and one stand of 6 transplanted rice seedlings (Oryza sativa cv. ‘Japonica-M202’) were planted into one 16-cm pot for each rate. Seeds from the U.S. of barnyardgrass (Echinochloa crus-galli), late watergrass (Echinochloa oryzicola), early watergrass (Echinochloa oryzoides) and junglerice (Echinochloa colona) were planted into one 16-cm pot for each rate. Plantings were sequential so that crop and weed species were at the 2.0 to 2.5-leaf stage at time of treatment.
(§2) Potted plants were grown in a greenhouse with day/night temperature settings of 29.5/26.7° C., and supplemental balanced lighting was provided to maintain a 16-hour photoperiod. Test pots were maintained in the greenhouse until test completion.
(§3) At time of treatment, test pots were flooded to 3 cm above the soil surface, treated by application of test compounds directly to the paddy water, and then maintained at that water depth for the duration of the test. Effects of treatments on rice and weeds were visually evaluated by comparison to untreated controls after 21 days. Plant response ratings, summarized in Table E, are based on a scale of 0 to 100 where 0 is no effect and 100 is complete control. A dash (-) response means no test result.

[2] = system: ducksalad (Heteranthera limosa); experiment: Test E flooded paddy water application; details: Flood, 21 days, scale 0 to 100 (0 no effect, 100 complete control)
Source text: as §1, §2, §3

[3] = system: barnyardgrass (Echinochloa crus-galli); experiment: Test E flooded paddy water application; details: Flood, 21 days, scale 0 to 100 (0 no effect, 100 complete control)
Source text: as §1, §2, §3

[4] = system: junglerice (Echinochloa colona); experiment: Test E flooded paddy water application; details: Flood, 21 days, scale 0 to 100 (0 no effect, 100 complete control)
Source text: as §1, §2, §3

[5] = system: late watergrass (Echinochloa oryzicola); experiment: Test E flooded paddy water application; details: Flood, 21 days, scale 0 to 100 (0 no effect, 100 complete control)
Source text: as §1, §2, §3

[6] = system: transplanted rice seedlings (Oryza sativa cv. ‘Japonica-M202’); experiment: Test E flooded paddy water application; details: Flood, 21 days, scale 0 to 100 (0 no effect, 100 complete control)
Source text: as §1, §2, §3

[7] = system: bearded (brdd.) sprangletop (Leptochloa fusca ssp. fascicularis); experiment: Test E flooded paddy water application; details: Flood, 21 days, scale 0 to 100 (0 no effect, 100 complete control)
Source text: as §1, §2, §3

[8] = system: early watergrass (Echinochloa oryzoides); experiment: Test E flooded paddy water application; details: Flood, 21 days, scale 0 to 100 (0 no effect, 100 complete control)
Source text: as §1, §2, §3

[9] = system: purple redstem (Ammannia coccinea); experiment: Test E flooded paddy water application; details: Flood, 21 days, scale 0 to 100 (0 no effect, 100 complete control)
Source text: as §1, §2, §3

[10] = system: smallflower umbrella sedge (Cyperus difformis); experiment: Test E flooded paddy water application; details: Flood, 21 days, scale 0 to 100 (0 no effect, 100 complete control)
Source text: as §1, §2, §3

[11] = system: water seeded rice seedlings (Oryza sativa cv. ‘Japonica-M202’); experiment: Test E flooded paddy water application; details: Flood, 21 days, scale 0 to 100 (0 no effect, 100 complete control)
Source text: as §1, §2, §3

[12] = system: crabgrass (Digitaria sanguinalis); experiment: Test A pre/postemergence
In short: (§4)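 Seeds sown in loam–sand blend received a preemergence directed soil spray of test chemical in non-phytotoxic solvent with surfactant; same-formulation postemergence spray given concurrently to plants 2–10 cm tall at 1- to 2-leaf stage. Greenhouse ~ten days, then visual injury rating versus untreated controls, 0 (no effect) to 100 (complete control).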

[13] = system: velvetleaf (Abutilon theophrasti); experiment: Test A pre/postemergence
In short: as §4

[14] = system: barnyardgrass (Echinochloa crus-galli); experiment: Test A pre/postemergence
In short: as §4

[15] = system: giant foxtail (Setaria faberi); experiment: Test A pre/postemergence
In short: as §4

[16] = system: morningglory (Ipomoea spp.); experiment: Test A pre/postemergence
In short: as §4

[17] = system: redroot pigweed (Amaranthus retroflexus); experiment: Test A pre/postemergence
In short: as §4

[18] = Postemergence, 125 g ai/ha, 0 to 100 scale (0 no effect, 100 complete control)
[19] = Postemergence, 500 g ai/ha, 0 to 100 scale (0 no effect, 100 complete control)
[20] = Preemergence, 125 g ai/ha, 0 to 100 scale where 0 is no effect and 100 is complete control, approximately ten days
[21] = Preemergence, 500 g ai/ha, 0 to 100 scale where 0 is no effect and 100 is complete control, approximately ten days

CCOC(=O)c1nc(-c2ccc(Cl)c(Cl)c2)nc(N)c1Br [Compound 66]
Flatsedge, Rice plant response rating ([1]; 32 g ai/ha): 0
Flatsedge, Rice plant response rating ([1]; 64 g ai/ha): 0
Flatsedge, Rice plant response rating ([1]; 125 g ai/ha): 0
Flatsedge, Rice plant response rating ([1]; 250 g ai/ha): 0
Plant response rating, Flatsedge, Rice ([1]; 16 g ai/ha): 0
Ducksalad plant response rating ([2]; 32 g ai/ha): 100
Ducksalad plant response rating ([2]; 64 g ai/ha): 100
Ducksalad plant response rating ([2]; 125 g ai/ha): 100
Ducksalad plant response rating ([2]; 250 g ai/ha): 100
Plant response rating, Ducksalad ([2]; 16 g ai/ha): 95
Barnyardgrass plant response rating ([3]; 32 g ai/ha): 0
Barnyardgrass plant response rating ([3]; 125 g ai/ha): 0
Barnyardgrass plant response rating ([3]; 250 g ai/ha): 35
Plant response rating, Barnyardgrass ([3]; 16 g ai/ha): 0
Junglerice plant response rating ([4]; 32 g ai/ha): 0
Junglerice plant response rating ([4]; 64 g ai/ha): 0
Junglerice plant response rating ([4]; 125 g ai/ha): 0
Junglerice plant response rating ([4]; 250 g ai/ha): 0
Plant response rating, Junglerice ([4]; 16 g ai/ha): 0
Watergrass, Late plant response rating ([5]; 32 g ai/ha): 0
Watergrass, Late plant response rating ([5]; 64 g ai/ha): 0
Watergrass, Late plant response rating ([5]; 125 g ai/ha): 0
Watergrass, Late plant response rating ([5]; 250 g ai/ha): 0
Plant response rating, Watergrass, Late ([5]; 16 g ai/ha): 0
Rice, Transplanted plant response rating ([6]; 32 g ai/ha): 0
Rice, Transplanted plant response rating ([6]; 64 g ai/ha): 0
Rice, Transplanted plant response rating ([6]; 125 g ai/ha): 0
Rice, Transplanted plant response rating ([6]; 250 g ai/ha): 0
Plant response rating, Rice, Transplanted ([6]; 16 g ai/ha): 0
Sprangletop, Brdd. plant response rating ([7]; 32 g ai/ha): 0
Sprangletop, Brdd. plant response rating ([7]; 64 g ai/ha): 0
Sprangletop, Brdd. plant response rating ([7]; 125 g ai/ha): 0
Sprangletop, Brdd. plant response rating ([7]; 250 g ai/ha): 0
Plant response rating, Sprangletop, Brdd. ([7]; 16 g ai/ha): 0
Watergrass, Early plant response rating ([8]; 32 g ai/ha): 0
Watergrass, Early plant response rating ([8]; 64 g ai/ha): 0
Watergrass, Early plant response rating ([8]; 125 g ai/ha): 0
Watergrass, Early plant response rating ([8]; 250 g ai/ha): 0
Plant response rating, Watergrass, Early ([8]; 16 g ai/ha): 0
Redstem plant response rating ([9]; 32 g ai/ha): 0
Redstem plant response rating ([9]; 64 g ai/ha): 0
Redstem plant response rating ([9]; 125 g ai/ha): 40
Redstem plant response rating ([9]; 250 g ai/ha): 100
Plant response rating, Redstem ([9]; 16 g ai/ha): 0
Sedge, Umbrella plant response rating ([10]; 32 g ai/ha): 0
Sedge, Umbrella plant response rating ([10]; 64 g ai/ha): 0
Sedge, Umbrella plant response rating ([10]; 125 g ai/ha): 0
Sedge, Umbrella plant response rating ([10]; 250 g ai/ha): 0
Plant response rating, Sedge, Umbrella ([10]; 16 g ai/ha): 0
Rice, Water Seeded plant response rating ([11]; 32 g ai/ha): 0
Rice, Water Seeded plant response rating ([11]; 64 g ai/ha): 0
Rice, Water Seeded plant response rating ([11]; 125 g ai/ha): 0
Rice, Water Seeded plant response rating ([11]; 250 g ai/ha): 0
Plant response rating, Rice, Water Seeded ([11]; 16 g ai/ha): 0
Plant response rating, Crabgrass [12, 18]: 0
Plant response rating, Crabgrass [12, 19]: 0
Plant response rating, Crabgrass [12, 20]: 0
Plant response rating, Crabgrass [12, 21]: 15
Plant response rating, Velvetleaf [13, 18]: 50
Plant response rating, Velvetleaf [13, 19]: 75
Plant response rating, Velvetleaf [13, 20]: 0
Plant response rating, Velvetleaf [13, 21]: 35
Plant response rating, Barnyardgrass [14, 18]: 0
Plant response rating, Barnyardgrass [14, 19]: 0
Plant response rating, Barnyardgrass [14, 20]: 0
Plant response rating, Barnyardgrass [14, 21]: 0
Plant response rating, Foxtail, Giant [15, 18]: 0
Plant response rating, Foxtail, Giant [15, 19]: 0
Plant response rating, Foxtail, Giant [15, 20]: 0
Plant response rating, Foxtail, Giant [15, 21]: 0
Plant response rating, Morningglory [16, 18]: 20
Plant response rating, Morningglory [16, 19]: 30
Plant response rating, Morningglory [16, 20]: 0
Plant response rating, Morningglory [16, 21]: 0
Plant response rating, Pigweed [17, 18]: 50
Plant response rating, Pigweed [17, 19]: 65
Plant response rating, Pigweed [17, 20]: 0
Plant response rating, Pigweed [17, 21]: 10
